Data set [1] has as its system Rattus norvegicus. The data set can be described thus: Anti-inflammatory activity against carrageenan-induced hind paw edema in rat at 20 mg/kg, PO measured after 5 hrs relative to control. In kind it is functional. In general terms: The carrageenan paw model is a standard test of acute inflammation.
Data set [2] concerns RAW264.7. The data set can be described thus: Anti-inflammatory activity against LPS induced mouse RAW264.7 cells assessed as suppression of TNFalpha cytokine level at 20 uM incubated for 24 hrs by ELISA assay relative to control. Format: functional. Background: ELISA stands for enzyme-linked immunosorbent assay.
In data set [3] the test system is Rattus norvegicus. Briefly: Anti-inflammatory activity against carrageenan-induced paw edema in PO dosed Wistar albino rat measured after 2 hrs. Format: functional.
Data set [4] concerns Rattus norvegicus. The data set can be described thus: Anti-inflammatory activity against carrageenan-induced paw edema in PO dosed Wistar albino rat assessed as edema inhibition percentage measured for 2 hrs relative to control. In kind it is functional.
The test system of data set [5] is Rattus norvegicus. Briefly: Anti-inflammatory activity against carrageenan-induced paw edema in po dosed Wistar rat pretreated for 1 hrs followed by carrageenan addition measured after 3 hrs. In kind it is functional. Particulars: time 4 hrs.
Data set [6] has as its system Rattus norvegicus. Briefly: Acute ulcerogenic activity in 18 hrs fasted Wistar rat at 60 mg/kg, po treated for 6 hrs relative to control. In kind it is functional.
Data set [7] concerns Rattus norvegicus. Briefly: Anti-inflammatory activity against carrageenan-induced paw edema in Wistar albino rat model assessed as inhibition of paw edema at 20 mg/kg, PO relative to control. Format: functional.
For data set [8], the system named is Rattus norvegicus. The data set can be described thus: Anti-inflammatory activity against carrageenan-induced paw edema in Wistar albino rat at 10 mg/kg, po pretreated for 1 hr followed by carrageenan addition measured after 6 hrs by plethysmometer relative to control. Format: functional. The settings on record: time 7 hrs.
The subject of data set [9] is Rattus norvegicus. The data set can be described thus: Acute anti-inflammatory activity against carrageenan induced paw edema in Albino rat at 20 mg/kg, po pretreated for 30 mins followed by carrageenan addition measured every hour for 3 hrs by plethysmography method relative to control. Format: functional. Particulars: time 3.5 hrs.
Data set [10] deals with Rattus norvegicus. The data set can be described thus: Anti-inflammatory activity against Cotton pellets induced granuloma in Albino rat at 20 mg/kg, po administered for 7 days measured on day 8 by measuring pellet weight relative to control. Format: functional. Particulars: time 8 day.
For the next data set, the system named is Erythrocyte. Briefly: Anti-inflammatory against heat induced human red blood cells assessed as inhibition of heat induced hemolysis by measuring membrane stabilization for at 100 ug/ml incubated for 30 mins relative to control. Format: functional. Particulars: 0.5 h.
The species entered for the next data set is Homo sapiens. The data set can be described thus: Inhibition of proteinase (unknown origin) at 100 ug/ml using casein as substrate preincubated for 5 mins followed by addition of substrate for 20 mins relative to control. The settings on record: dose 100.0 µg/ml.
The target of data set [11] is T1, Seed linoleate 13S-lipoxygenase-1 (Glycine max, UniProt P08170).
T1 sequence (P08170 whole entry): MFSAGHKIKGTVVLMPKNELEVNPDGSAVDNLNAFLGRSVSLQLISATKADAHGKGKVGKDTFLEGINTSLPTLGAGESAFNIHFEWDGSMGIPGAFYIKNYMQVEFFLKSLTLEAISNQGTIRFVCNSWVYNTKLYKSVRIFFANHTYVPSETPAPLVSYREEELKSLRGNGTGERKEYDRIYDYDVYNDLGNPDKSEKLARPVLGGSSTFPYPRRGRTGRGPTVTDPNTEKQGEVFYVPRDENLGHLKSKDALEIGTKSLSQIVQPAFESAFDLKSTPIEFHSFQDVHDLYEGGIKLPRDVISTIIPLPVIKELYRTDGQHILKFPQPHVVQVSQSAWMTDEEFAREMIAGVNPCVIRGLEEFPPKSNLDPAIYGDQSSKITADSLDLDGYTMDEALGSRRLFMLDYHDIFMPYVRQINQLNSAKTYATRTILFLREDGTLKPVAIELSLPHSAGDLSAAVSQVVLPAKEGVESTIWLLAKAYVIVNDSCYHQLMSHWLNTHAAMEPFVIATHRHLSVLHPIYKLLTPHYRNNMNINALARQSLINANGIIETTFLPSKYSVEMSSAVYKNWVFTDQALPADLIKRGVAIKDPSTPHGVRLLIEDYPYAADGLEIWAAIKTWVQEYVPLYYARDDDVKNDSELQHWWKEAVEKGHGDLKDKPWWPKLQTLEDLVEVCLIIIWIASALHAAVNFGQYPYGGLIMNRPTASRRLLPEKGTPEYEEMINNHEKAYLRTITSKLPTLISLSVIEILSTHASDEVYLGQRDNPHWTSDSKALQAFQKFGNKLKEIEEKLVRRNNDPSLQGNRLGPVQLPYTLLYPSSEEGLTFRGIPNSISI
Briefly: Inhibition of soybean LOX-1 using linoleic acid as substrate measured for 3 mins.

Data set [12] in a line: Antioxidant activity assessed as DPPH radical scavenging activity incubated for 20 mins by UV spectrometric analysis. Format: functional. (In general: DPPH is a stable violet radical that fades when it is reduced.)
Data set [13] addresses T2, Seed linoleate 13S-lipoxygenase-1 (Glycine max) (UniProt P08170).
T2 sequence (whole entry): T1 sequence (P08170 whole entry)
Briefly: Binding affinity to soybean LOX-1 assessed as quenching ability by fluorescence based assay relative to control.

In data set [14] the test system is Rattus norvegicus. The data set can be described thus: Anti-inflammatory activity against carrageenan-induced paw edema in Sprague-Dawley rat at 30 mg/kg, IP pretreated for 30 mins followed by carrageenan addition measured after 4 hrs relative to control. Format: functional. The settings on record: time 4.5 hrs.
Data set [15] deals with Rattus norvegicus. The data set can be described thus: Antiulcer activity against ulceration induced albino Wistar rat assessed as ulcerogenic index pretreated daily at 25 mg/kg for 4 days followed by 24 hrs fasting prior to pylorus ligation measured after 4 hrs. In kind it is functional. Particulars: time 124 hrs.
Data set [16] deals with Rattus norvegicus. Briefly: Anti-inflammatory activity against carrageenan-induced paw oedema in 12 hrs fasted Albino rat assessed as inhibition of oedema formation administered intraperitoneally measured after 3 hrs relative to control. In kind it is functional. Particulars: route ip.
The nature of data set [17]: Ulcerogenic activity in 12 hrs fasted Albino rat assessed as ulcerogenic index at […] per day, po for 3 days. Format: toxicity, organism-based. Particulars: in vivo, 72 h, time 3 day.
Data set [18] has as its system Mus musculus. The data set can be described thus: Anti-inflammatory activity against Carrageenan-induced paw edema in Swiss albino mouse assessed as change in paw volume at 10 mg/kg, PO measured after 6 hrs by plethysmometric analysis relative to control. Format: functional.
Data set [19] relates to RAW264.7. Briefly: Anti-inflammatory against LPS induced mouse RAW 264.7 cells assessed as inhibition of IL-1beta measured for 24 hrs by ELISA analysis. Format: functional, cell-based. The settings on record: RAW264.7, 24 h.
For data set [20], the system named is RAW264.7. The data set can be described thus: Anti-inflammatory against LPS induced mouse RAW 264.7 cells assessed as inhibition of NO measured for 24 hrs by ELISA analysis. Particulars: RAW264.7, 24 h. In kind it is functional, cell-based.
Data set [21] deals with RAW264.7. The data set can be described thus: Anti-inflammatory against LPS induced mouse RAW 264.7 cells assessed as inhibition of IL-6 measured for 24 hrs by ELISA analysis. Particulars: RAW264.7, 24 h. In kind it is functional, cell-based.
The test system of data set [22] is Mus musculus. The data set can be described thus: Analgesic activity in albino […] mouse assessed as increase in reaction on paw licking at 100 mg/kg, po pretreated for 1 hrs followed by hot plate treatment measured after 90 mins by analgesiometer based analysis relative to control. Particulars: time 2.5 hrs. In kind it is functional.

Molecules are shown by their SMILES. Converted amounts (≈) assume the structure as drawn.

With `O=C1/C(=C\c2ccc(F)cc2)C=C(c2ccc(F)cc2)N1Cc1ccccc1Cl`, in the data set with Rattus norvegicus [1], the inhibition in vivo (usually the relative decrease from the control value, in per cent) at 20 mg/kg was found to be 71.5%. Further, the Activity with RAW264.7 [2] is given as 60.9%.
With `CC1=NN(c2ccccc2C(=O)O)C(=O)/C1=N/Nc1ccc(S(N)(=O)=O)cc1`, it took a dose of 44 µmol/kg to reach the 50% effect level in the data set on Rattus norvegicus [3] (ED50). Further, the “inhibition (INH)” value with Rattus norvegicus [4] turned out to be 54.54%.
On to `CC(C)Cc1ccc(C(C)C(=O)O)cc1` (centres undefined) [IBUPROFEN], for which the ED50 (as a rule, the dose at which the effect has come halfway, by size or by number of responders) with Rattus norvegicus [5] stood at 15 µmol/kg. This molecule also displayed an Activity in the data set with Rattus norvegicus [6] of 69.5%. Also, the inhibition in vivo at 20 mg/kg in the data set with Rattus norvegicus [7] was found to be 65.9%. In addition, in the data set with Rattus norvegicus [8], the inhibition in vivo at 10 mg/kg was 94.7%.
In the case of `CN(C)CCC(=O)Nc1ccc2oc(Cc3ccc(Cl)cc3)nc2c1`, the results for the Activity with Rattus norvegicus [9] and in the data set on Rattus norvegicus [10] were 72% and 48.4%, respectively.
On to `Clc1cc(Cl)c2cccc(-c3nc4ccccc4o3)c2n1`, for which the inhibition – broadly, how much of the control response was suppressed – at 100 µg/mL with Erythrocyte stood at 80.2%. The molecule further came in with an inhibition in the data set filed under Homo sapiens of 85.3%.
Take `COCc1nc2ccc3occc3c2o1`: the IC50 (as a rule, the concentration that gives 50% inhibition) in data set [11] was determined as 65.4 µM; in data set [12], 360 µg/mL (≈ 1770 µM). Further, in data set [13], the Qmax is 76.3%.
As for `O=C1/C(=C\c2ccc(F)cc2)C=C(c2ccc(F)cc2)N1Cc1ccc(F)cc1`, the inhibition in vivo at 20 mg/kg in the data set with Rattus norvegicus [1] was found to be 76.2%. Further, the Activity in the data set on RAW264.7 [2] is 65.03%.
For the molecule `CCOC(=O)CSc1nnc(Cc2ccccc2)n1C1CCCCC1`, the inhibition in vivo at 30 mg/kg with Rattus norvegicus [14] was found to be 62.5%.
Take `Nc1cc(-c2ccccc2)nn1C(=O)c1csc(-c2ccccc2)n1`: the Activity in the data set with Rattus norvegicus [15] is 0.44.
On to `Cc1ccc(S(=O)(=O)N2CC(O)CC2C(=O)Nc2nc3ccccc3s2)cc1` (centres undefined), for which the “inhibition (INH)” value in the data set with Rattus norvegicus [16] came out at 78%. Further, in data set [17], the Activity_index stood at 0.89.
As for `O=C([O-])Cc1ccccc1Nc1c(Cl)cccc1Cl.[Na+]` [DICLOFENAC SODIUM], the Activity is on record as 64.7% in the data set on Rattus norvegicus [6], 4.67 in the data set on Rattus norvegicus [15] and 60.2% with Rattus norvegicus [10].
Take `C(=N\c1ccccc1-c1nc2ccccc2o1)/c1cccs1`: in the data set on Erythrocyte, the inhibition at 100 µg/mL was 70.2%. Besides, the inhibition in the data set listed under Homo sapiens amounted to 75.2%.
In the case of `COc1ccc(C2CC(c3ccc(F)cc3O)=NN2)cc1` (centres undefined), the Activity in the data set with Mus musculus [18] is listed as 54%.
The same measure, in the same setting: the result for `COc1ccc(/C=C/C(=O)c2ccc(F)cc2O)cc1` reads 54%.
For the molecule `CN(C)c1cccc2c(S(=O)(=O)Oc3cccc4oc(=O)[nH]c34)cccc12`, the IC50 in the data set on RAW264.7 [19] amounted to 20.1 µM; in the data set on RAW264.7 [20], 17.7 µM; in the data set on RAW264.7 [21] it was 8.61 µM.
In the case of `CCOC(=O)c1cc(N)n(C(=O)c2csc(-c3ccccc3)n2)n1`, in the data set on Rattus norvegicus [15], the Activity came out at 0.44.
Regarding `CC(C(=O)O)C(O)(c1ccccc1)c1ccccc1` (centres undefined), in the data set with Rattus norvegicus [5], the 50% effective dose (ED50) came to 15 µmol/kg.
As for `Cc1ccc(-c2nnc(CCC(=O)N/N=C3\C(=O)Nc4ccccc43)o2)cc1`, the Activity in the data set with Mus musculus [22] is listed as 83.17%.

The values above are taken from ChEMBL document CHEMBL5096183, “Contemporary advances of cyclic molecules proposed for inflammation” (Eur J Med Chem, 2021).
